Measurements reported in patent publication US20240116985A1, “STAPLED PEPTIDES AND METHODS THEREOF” (priority 2020, published 2024).

How the values were obtained:
[1] = molecular target: T1, full-length B-Catenin (Uniprot ID P35222) (Homo sapiens, UniProt P35222); assay: Alphascreen binding assay (beta-catenin / biotin-TCF4 10-53)
T1 construct: 65 nM full-length B-Catenin (Uniprot ID P35222)
T1 sequence (P35222 1-781): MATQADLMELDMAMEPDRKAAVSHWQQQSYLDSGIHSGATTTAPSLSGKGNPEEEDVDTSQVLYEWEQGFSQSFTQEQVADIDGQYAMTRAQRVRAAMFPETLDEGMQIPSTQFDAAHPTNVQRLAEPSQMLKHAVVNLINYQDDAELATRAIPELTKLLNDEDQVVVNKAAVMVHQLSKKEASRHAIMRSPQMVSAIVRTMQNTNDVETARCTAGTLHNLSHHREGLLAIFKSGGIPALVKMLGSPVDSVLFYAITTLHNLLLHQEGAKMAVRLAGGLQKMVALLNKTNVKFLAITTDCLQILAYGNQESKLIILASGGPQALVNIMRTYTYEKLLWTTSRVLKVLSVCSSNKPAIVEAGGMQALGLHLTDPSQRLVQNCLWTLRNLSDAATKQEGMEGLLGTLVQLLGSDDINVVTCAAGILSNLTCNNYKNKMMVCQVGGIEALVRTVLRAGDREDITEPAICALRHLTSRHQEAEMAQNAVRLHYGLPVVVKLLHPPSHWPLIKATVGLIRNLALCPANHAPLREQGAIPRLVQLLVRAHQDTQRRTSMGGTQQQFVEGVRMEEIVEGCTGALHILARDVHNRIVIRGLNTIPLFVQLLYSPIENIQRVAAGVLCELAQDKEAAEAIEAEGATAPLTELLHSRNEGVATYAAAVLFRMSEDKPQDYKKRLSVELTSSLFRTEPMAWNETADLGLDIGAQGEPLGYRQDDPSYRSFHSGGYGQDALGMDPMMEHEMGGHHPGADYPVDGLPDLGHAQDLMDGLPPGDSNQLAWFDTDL
Summary of the method: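 AlphaScreen (Ni-chelate beads) competition in 50 mM Tris pH 8.0, 250 mM NaCl with detergents and 0.1% BSA. Peptide titrated 10 uM–5 nM against 65 nM human β-catenin bound to 10 nM biotinylated TCF4 10-53, 15 min then 60 min with beads, both at 20 °C; 1:1 Hill-slope fit.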

CHI Log D procedure = assay type: physicochemical; settings: for CHI Log D: pH 7.4; for chromatographic logD: pH 7.4, CHI Log D

EC50 [1] [µM]	CHI Log D (CHI Log D procedure)	chromatographic logD (CHI Log D procedure)	SMILES
1.2	2.299	–	CC(=O)N1CCC[C@]12CC=CCCCC1(CCCC=CCCCCCC[C@@](C)(C(=O)N[C@@H](Cc3cccc(C(F)(F)F)c3)C(=O)N[C@@H](Cc3c[nH]c4ccccc34)C(=O)N[C@@H](CCC(N)=O)C(N)=O)NC(=O)[C@H](C(C)C)NC(=O)[C@H](Cc3ccccc3)NC(=O)[C@H](C)NC(=O)[C@H](C)NC(=O)[C@H](CC(=O)O)NC(=O)[C@H](CC(=O)O)NC1=O)NC(=O)[C@H](C)NC(=O)[C@H](CC(=O)O)NC2=O (stereo partly drawn) [I-250, Ac-PL3-Asp-Ala-B5-Asp-Asp-Ala-Ala-Phe-Val-S8-3F3MeF-Trp-Gln-NH2]
1.2	2.299	–	CC(=O)N1CCC[C@]12CC=CCCCC1(CCCC=CCCCCCC[C@@](C)(C(=O)N[C@@H](Cc3cccc(C(F)(F)F)c3)C(=O)N[C@@H](Cc3c[nH]c4ccccc34)C(=O)N[C@@H](CCC(N)=O)C(N)=O)NC(=O)[C@H](C(C)C)NC(=O)[C@H](Cc3ccccc3)NC(=O)[C@H](C)NC(=O)[C@H](C)NC(=O)[C@H](CC(=O)O)NC(=O)[C@H](CC(=O)O)NC1=O)NC(=O)[C@H](C)NC(=O)[C@H](CC(=O)O)NC2=O (stereo partly drawn) [I-251, Ac-PL3-Asp-Ala-B5-Asp-Asp-Ala-Ala-Phe-Val-S8-3F3MeF-Trp-Gln-NH2]
3.69	2.214	–	CC(=O)N1CCC[C@]12CC=CCCCC1(CCCC=CCCCCCC[C@@](C)(C(=O)N[C@@H](Cc3ccc(C(F)(F)F)cc3)C(=O)N[C@@H](Cc3c[nH]c4ccccc34)C(=O)N[C@@H](CCC(N)=O)C(N)=O)NC(=O)[C@H](C(C)C)NC(=O)[C@H](Cc3ccccc3)NC(=O)[C@H](C)NC(=O)[C@H](C)NC(=O)[C@H](CC(=O)O)NC(=O)[C@H](CC(=O)O)NC1=O)NC(=O)[C@H](C)NC(=O)[C@H](CC(=O)O)NC2=O (stereo partly drawn) [I-252, Ac-PL3-Asp-Ala-B5-Asp-Asp-Ala-Ala-Phe-Val-S8-4F3MeF-Trp-Gln-NH2]
3.69	2.214	–	CC(=O)N1CCC[C@]12CC=CCCCC1(CCCC=CCCCCCC[C@@](C)(C(=O)N[C@@H](Cc3ccc(C(F)(F)F)cc3)C(=O)N[C@@H](Cc3c[nH]c4ccccc34)C(=O)N[C@@H](CCC(N)=O)C(N)=O)NC(=O)[C@H](C(C)C)NC(=O)[C@H](Cc3ccccc3)NC(=O)[C@H](C)NC(=O)[C@H](C)NC(=O)[C@H](CC(=O)O)NC(=O)[C@H](CC(=O)O)NC1=O)NC(=O)[C@H](C)NC(=O)[C@H](CC(=O)O)NC2=O (stereo partly drawn) [I-253, Ac-PL3-Asp-Ala-B5-Asp-Asp-Ala-Ala-Phe-Val-S8-4F3MeF-Trp-Gln-NH2]
1.96	2.232	–	CC(=O)N1CCC[C@]12CC=CCCCC1(CCCC=CCCCCCC[C@@](C)(C(=O)N[C@@H](Cc3ccc(C(F)(F)F)cc3)C(=O)N[C@@H](Cc3c[nH]c4ccccc34)C(=O)N[C@@H](CCC(N)=O)C(N)=O)NC(=O)[C@H](C(C)C)NC(=O)[C@H](Cc3ccccc3)NC(=O)[C@H](C)NC(=O)[C@H](C)NC(=O)[C@H](CC(=O)O)NC(=O)[C@H](CC(=O)O)NC1=O)NC(=O)[C@H](C)NC(=O)[C@H](CC(=O)O)NC2=O (stereo partly drawn) [I-254, Ac-PL3-Asp-Ala-B5-Asp-Asp-Ala-Ala-Phe-Val-S8-4F3MeF-Trp-Gln-NH2]
1.96	2.232	–	CC(=O)N1CCC[C@]12CC=CCCCC1(CCCC=CCCCCCC[C@@](C)(C(=O)N[C@@H](Cc3ccc(C(F)(F)F)cc3)C(=O)N[C@@H](Cc3c[nH]c4ccccc34)C(=O)N[C@@H](CCC(N)=O)C(N)=O)NC(=O)[C@H](C(C)C)NC(=O)[C@H](Cc3ccccc3)NC(=O)[C@H](C)NC(=O)[C@H](C)NC(=O)[C@H](CC(=O)O)NC(=O)[C@H](CC(=O)O)NC1=O)NC(=O)[C@H](C)NC(=O)[C@H](CC(=O)O)NC2=O (stereo partly drawn) [I-255, Ac-PL3-Asp-Ala-B5-Asp-Asp-Ala-Ala-Phe-Val-S8-4F3MeF-Trp-Gln-NH2]
4.18	–	2.9	CC(=O)N1CCC[C@]12CC=CCCCC1(CCCC=CCCCCCC[C@@](C)(C(=O)N[C@@H](Cc3ccccc3)C(=O)N[C@@H](Cc3c[nH]c4ccccc34)C(=O)N[C@@H](CCC(N)=O)C(N)=O)NC(=O)[C@H](C(C)C)NC(=O)[C@H](Cc3ccccc3)NC(=O)[C@H](C)NC(=O)[C@H](C)NC(=O)[C@H](Cc3ccc(F)c(F)c3)NC(=O)[C@H](CC(=O)O)NC1=O)NC(=O)[C@H](C)NC(=O)[C@H](CC(=O)O)NC2=O (stereo partly drawn) [I-259, Ac-PL3-Asp-Ala-B5-Asp-34FF-Ala-Ala-Phe-Val-S8-Phe-Trp-Gln-NH2]
1.01	–	2.46	CC(=O)N1CCC[C@]12CC=CCCCC1(CCCC=CCCCCCC[C@@](C)(C(=O)N[C@@H](Cc3ccccc3)C(=O)N[C@@H](Cc3c[nH]c4ccccc34)C(=O)N[C@@H](CCC(N)=O)C(N)=O)NC(=O)[C@H](C(C)C)NC(=O)[C@H](Cc3ccccc3)NC(=O)[C@H](C)NC(=O)[C@H](C)NC(=O)[C@H](Cc3ccncc3)NC(=O)[C@H](CC(=O)O)NC1=O)NC(=O)[C@H](C)NC(=O)[C@H](CC(=O)O)NC2=O (stereo partly drawn) [I-272, Ac-PL3-Asp-Ala-B5-Asp-4PyrA-Ala-Ala-Phe-Val-S8-Phe-Trp-Gln-NH2]
2.23	2.209	–	CC(=O)N1CCC[C@]12CC=CCCCC1(CCCC=CCCCCCC[C@@](C)(C(=O)N[C@@H](Cc3ccc4ccccc4c3)C(=O)N[C@@H](Cc3c[nH]c4ccccc34)C(=O)N[C@@H](CCC(N)=O)C(N)=O)NC(=O)[C@H](C(C)C)NC(=O)[C@H](Cc3ccccc3)NC(=O)[C@H](C)NC(=O)[C@H](C)NC(=O)[C@H](CC(=O)O)NC(=O)[C@H](CC(=O)O)NC1=O)NC(=O)[C@H](C)NC(=O)[C@H](CC(=O)O)NC2=O (stereo partly drawn) [I-278, Ac-PL3-Asp-Ala-B5-Asp-Asp-Ala-Ala-Phe-Val-S8-2NapA-Trp-Gln-NH2]
4.96	1.973	–	CC(=O)N1CCC[C@]12CC=CCCCC1(CCCC=CCCCCCC[C@@](C)(C(=O)N[C@@H](Cc3ccccc3)C(=O)N[C@@H](Cc3c[nH]c4ccccc34)C(=O)N[C@@H](CCC(N)=O)C(N)=O)NC(=O)[C@H](C(C)C)NC(=O)[C@H](Cc3ccccc3)NC(=O)[C@H](C)NC(=O)[C@H](C)NC(=O)[C@H](CC(=O)O)NC(=O)[C@H](CC(=O)O)NC1=O)NC(=O)[C@H](C)NC(=O)[C@H](CCC(=O)O)NC2=O (stereo partly drawn) [I-279, Ac-PL3-Glu-Ala-B5-Asp-Asp-Ala-Ala-Phe-Val-S8-Phe-Trp-Gln-NH2]
9.54	–	1.29	CC(=O)N1CCC[C@]12CC=CCCCC1(CCCC=CCCCCCC[C@@](C)(C(=O)N[C@@H](CC(=O)O)C(=O)N[C@@H](Cc3c[nH]c4ccccc34)C(=O)N[C@@H](CCC(N)=O)C(N)=O)NC(=O)[C@H](C(C)C)NC(=O)[C@H](Cc3ccccc3)NC(=O)[C@H](C)NC(=O)[C@H](C)NC(=O)[C@H](CC(=O)O)NC(=O)[C@H](CC(=O)O)NC1=O)NC(=O)[C@H](C)NC(=O)[C@H](CC(=O)O)NC2=O (stereo partly drawn) [I-283, Ac-PL3-Asp-Ala-B5-Asp-Asp-Ala-Ala-Phe-Val-S8-Asp-Trp-Gln-NH2]
0.626	2.242	–	CC(=O)N1CCC[C@]12CC=CCCCC1(CCCC=CCCCCCC[C@@](C)(C(=O)N[C@@H](Cc3ccccc3)C(=O)N[C@@H](Cc3c[nH]c4ccccc34)C(N)=O)NC(=O)[C@H](C(C)C)NC(=O)[C@H](Cc3ccccc3)NC(=O)[C@H](C)NC(=O)[C@H](C)NC(=O)[C@H](CC(=O)O)NC(=O)[C@H](CC(=O)O)NC1=O)NC(=O)[C@H](C)NC(=O)[C@H](CC(=O)O)NC2=O (stereo partly drawn) [I-289, Ac-PL3-Asp-Ala-B5-Asp-Asp-Ala-Ala-Phe-Val-S8-Phe-Trp-NH2]
